Columns and labels:
Test in all cases: biochemical
Assay type in all cases: binding
panel of 442 kinases [1] = molecular target: T1, panel of 442 kinases (Homo sapiens, UniProt Q9UF33); conditions: EPHA6; for remaining activity at 1 µM: read-out: % of control at 1 µM
T1 construct: purchased Ambit Biosciences (scanMAXX KINOMEscan)
T1 sequence (Q9UF33 23-1036): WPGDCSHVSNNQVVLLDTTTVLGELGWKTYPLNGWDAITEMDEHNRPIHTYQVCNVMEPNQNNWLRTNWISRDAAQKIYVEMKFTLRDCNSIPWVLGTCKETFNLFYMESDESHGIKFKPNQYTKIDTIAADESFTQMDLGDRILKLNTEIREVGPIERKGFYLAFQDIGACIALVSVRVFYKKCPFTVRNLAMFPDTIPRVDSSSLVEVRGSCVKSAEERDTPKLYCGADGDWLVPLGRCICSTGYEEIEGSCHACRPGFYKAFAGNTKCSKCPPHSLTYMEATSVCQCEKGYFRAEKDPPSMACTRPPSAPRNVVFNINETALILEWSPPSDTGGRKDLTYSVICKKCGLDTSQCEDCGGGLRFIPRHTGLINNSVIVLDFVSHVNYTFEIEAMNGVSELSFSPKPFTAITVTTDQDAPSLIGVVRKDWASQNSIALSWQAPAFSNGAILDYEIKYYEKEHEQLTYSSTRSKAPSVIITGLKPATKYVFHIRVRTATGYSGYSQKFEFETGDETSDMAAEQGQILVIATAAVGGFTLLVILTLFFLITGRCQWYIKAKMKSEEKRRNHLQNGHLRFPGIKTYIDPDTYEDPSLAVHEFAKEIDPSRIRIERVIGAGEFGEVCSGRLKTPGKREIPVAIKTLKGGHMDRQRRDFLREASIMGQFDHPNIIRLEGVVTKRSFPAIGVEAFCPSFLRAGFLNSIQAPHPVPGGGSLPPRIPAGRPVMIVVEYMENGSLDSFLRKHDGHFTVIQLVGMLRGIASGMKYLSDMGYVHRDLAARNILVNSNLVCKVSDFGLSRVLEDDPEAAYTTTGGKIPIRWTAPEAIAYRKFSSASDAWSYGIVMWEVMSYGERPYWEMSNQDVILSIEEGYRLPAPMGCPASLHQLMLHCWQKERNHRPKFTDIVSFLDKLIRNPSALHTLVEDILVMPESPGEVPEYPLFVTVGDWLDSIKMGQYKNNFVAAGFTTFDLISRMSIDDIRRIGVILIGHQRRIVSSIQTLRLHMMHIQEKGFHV

panel of 442 kinases [2] = molecular target: T2, panel of 442 kinases (Homo sapiens, UniProt P51813); conditions: BMX; for remaining activity at 1 µM: read-out: % of control at 1 µM
T2 construct: purchased Ambit Biosciences (scanMAXX KINOMEscan)
T2 sequence (P51813 1-675): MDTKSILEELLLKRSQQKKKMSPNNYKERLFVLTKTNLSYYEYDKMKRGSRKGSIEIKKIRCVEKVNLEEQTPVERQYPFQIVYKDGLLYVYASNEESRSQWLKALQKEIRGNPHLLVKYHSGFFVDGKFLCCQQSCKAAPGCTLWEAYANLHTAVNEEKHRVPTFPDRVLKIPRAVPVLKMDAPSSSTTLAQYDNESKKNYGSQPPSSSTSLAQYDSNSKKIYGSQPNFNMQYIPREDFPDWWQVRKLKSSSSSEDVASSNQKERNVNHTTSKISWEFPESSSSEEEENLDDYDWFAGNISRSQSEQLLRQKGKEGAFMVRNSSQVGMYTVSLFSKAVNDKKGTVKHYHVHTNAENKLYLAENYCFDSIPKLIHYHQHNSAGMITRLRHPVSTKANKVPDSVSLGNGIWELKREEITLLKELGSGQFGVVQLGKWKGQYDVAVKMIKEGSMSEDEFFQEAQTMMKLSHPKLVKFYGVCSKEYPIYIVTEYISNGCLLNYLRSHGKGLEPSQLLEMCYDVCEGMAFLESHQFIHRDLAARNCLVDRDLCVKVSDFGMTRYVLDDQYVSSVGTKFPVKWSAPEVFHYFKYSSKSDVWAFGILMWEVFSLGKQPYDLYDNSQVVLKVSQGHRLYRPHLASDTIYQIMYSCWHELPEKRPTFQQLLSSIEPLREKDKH

panel of 442 kinases [3] = molecular target: T3, panel of 442 kinases (Homo sapiens, UniProt P27361); conditions: ERK1; for remaining activity at 1 µM: read-out: % of control at 1 µM
T3 construct: purchased Ambit Biosciences (scanMAXX KINOMEscan)

panel of 442 kinases [4] = molecular target: T4, panel of 442 kinases (Homo sapiens, UniProt P49840); conditions: kinase GSK3A; for remaining activity at 1 µM: read-out: % of control at 1 µM
T4 construct: purchased Ambit Biosciences (scanMAXX KINOMEscan)

panel of 442 kinases [5] = molecular target: T5, panel of 442 kinases (Homo sapiens, UniProt Q14680); conditions: kinase MELK; for remaining activity at 1 µM: read-out: % of control at 1 µM
T5 construct: purchased Ambit Biosciences (scanMAXX KINOMEscan)

panel of 442 kinases [6] = molecular target: T6, panel of 442 kinases (Homo sapiens, UniProt P0C1S8); conditions: kinase WEE2; for remaining activity at 1 µM: read-out: WEE2 (% of control at 1 µM)
T6 construct: purchased Ambit Biosciences (scanMAXX KINOMEscan)

panel of 442 kinases [7] = molecular target: T7, panel of 442 kinases (Homo sapiens, UniProt Q9HBH9); conditions: kinase MKNK2; for remaining activity at 1 µM: read-out: % of control at 1 µM
T7 construct: purchased Ambit Biosciences (scanMAXX KINOMEscan)

panel of 442 kinases [8] = molecular target: T8, panel of 442 kinases (Homo sapiens, UniProt Q13555); conditions: CAMK2G; for remaining activity at 1 µM: read-out: % of control at 1 µM
T8 construct: purchased Ambit Biosciences (scanMAXX KINOMEscan)

panel of 442 kinases [9] = molecular target: T9, panel of 442 kinases (Homo sapiens, UniProt P17612); conditions: kinase PKAC-alpha; for remaining activity at 1 µM: read-out: % of control at 1 µM
T9 construct: purchased Ambit Biosciences (scanMAXX KINOMEscan)

panel of 442 kinases [10] = molecular target: T10, panel of 442 kinases (Homo sapiens, UniProt P00533, T790M); conditions: EGFR(T790M); for remaining activity at 1 µM: read-out: % of control at 1 µM
T10 construct: purchased Ambit Biosciences (scanMAXX KINOMEscan)

panel of 442 kinases [11] = molecular target: T11, panel of 442 kinases (Homo sapiens, UniProt P42685); conditions: kinase FRK; for remaining activity at 1 µM: read-out: % of control at 1 µM
T11 construct: purchased Ambit Biosciences (scanMAXX KINOMEscan)

[12] = 10 µM, read-out: % of control at 10 µM

T4 sequence (P49840 whole entry): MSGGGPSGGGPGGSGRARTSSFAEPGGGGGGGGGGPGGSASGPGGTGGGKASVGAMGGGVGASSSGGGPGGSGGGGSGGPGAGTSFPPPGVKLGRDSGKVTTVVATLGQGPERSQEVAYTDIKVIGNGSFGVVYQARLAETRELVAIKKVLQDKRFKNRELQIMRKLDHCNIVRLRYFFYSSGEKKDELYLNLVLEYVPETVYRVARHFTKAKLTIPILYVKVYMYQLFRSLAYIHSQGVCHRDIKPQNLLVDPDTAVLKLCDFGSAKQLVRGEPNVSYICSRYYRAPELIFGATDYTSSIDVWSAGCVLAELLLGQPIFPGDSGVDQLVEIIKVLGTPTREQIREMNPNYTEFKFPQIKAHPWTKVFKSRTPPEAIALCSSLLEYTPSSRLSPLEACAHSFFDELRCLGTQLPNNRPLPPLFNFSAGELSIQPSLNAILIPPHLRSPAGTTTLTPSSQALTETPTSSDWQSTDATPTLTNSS
T7 sequence (Q9HBH9 whole entry): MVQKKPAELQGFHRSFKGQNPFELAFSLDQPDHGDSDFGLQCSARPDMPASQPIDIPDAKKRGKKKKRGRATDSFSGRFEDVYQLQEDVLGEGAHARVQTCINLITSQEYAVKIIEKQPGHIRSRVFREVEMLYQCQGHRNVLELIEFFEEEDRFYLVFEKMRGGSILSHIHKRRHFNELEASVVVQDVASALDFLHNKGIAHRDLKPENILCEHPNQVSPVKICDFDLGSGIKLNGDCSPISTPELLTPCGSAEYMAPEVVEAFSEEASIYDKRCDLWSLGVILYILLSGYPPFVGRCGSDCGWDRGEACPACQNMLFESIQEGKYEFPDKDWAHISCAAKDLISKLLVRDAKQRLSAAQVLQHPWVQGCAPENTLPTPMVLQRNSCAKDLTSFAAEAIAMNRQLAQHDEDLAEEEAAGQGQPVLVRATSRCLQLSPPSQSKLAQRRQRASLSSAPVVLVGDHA
T5 sequence (Q14680 whole entry): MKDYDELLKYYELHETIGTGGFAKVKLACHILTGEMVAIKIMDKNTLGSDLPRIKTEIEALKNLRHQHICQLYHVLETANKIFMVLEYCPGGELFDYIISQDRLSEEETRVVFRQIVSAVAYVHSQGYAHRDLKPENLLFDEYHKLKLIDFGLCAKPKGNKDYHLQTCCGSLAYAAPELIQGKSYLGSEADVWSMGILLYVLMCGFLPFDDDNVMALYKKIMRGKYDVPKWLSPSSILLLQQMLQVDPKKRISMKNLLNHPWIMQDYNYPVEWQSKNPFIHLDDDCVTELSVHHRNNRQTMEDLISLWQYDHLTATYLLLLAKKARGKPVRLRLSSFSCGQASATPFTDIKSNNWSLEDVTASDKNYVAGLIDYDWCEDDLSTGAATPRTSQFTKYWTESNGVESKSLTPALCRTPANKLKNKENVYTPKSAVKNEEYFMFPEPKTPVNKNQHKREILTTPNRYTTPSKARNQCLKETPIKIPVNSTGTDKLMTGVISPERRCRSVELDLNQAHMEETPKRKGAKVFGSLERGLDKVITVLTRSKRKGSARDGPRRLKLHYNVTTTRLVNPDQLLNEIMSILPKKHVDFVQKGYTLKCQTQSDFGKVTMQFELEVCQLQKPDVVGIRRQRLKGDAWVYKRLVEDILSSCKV
T3 sequence (P27361 whole entry): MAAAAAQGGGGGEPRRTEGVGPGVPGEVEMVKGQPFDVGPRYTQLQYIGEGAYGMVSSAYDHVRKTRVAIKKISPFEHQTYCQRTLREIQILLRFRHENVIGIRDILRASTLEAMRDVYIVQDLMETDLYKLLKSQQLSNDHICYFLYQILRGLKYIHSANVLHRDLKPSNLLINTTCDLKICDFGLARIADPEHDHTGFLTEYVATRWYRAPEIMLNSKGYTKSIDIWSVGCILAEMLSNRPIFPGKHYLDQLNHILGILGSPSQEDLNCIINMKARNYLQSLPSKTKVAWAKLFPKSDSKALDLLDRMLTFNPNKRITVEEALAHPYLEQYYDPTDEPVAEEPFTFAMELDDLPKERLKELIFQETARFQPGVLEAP
T11 sequence (P42685 whole entry): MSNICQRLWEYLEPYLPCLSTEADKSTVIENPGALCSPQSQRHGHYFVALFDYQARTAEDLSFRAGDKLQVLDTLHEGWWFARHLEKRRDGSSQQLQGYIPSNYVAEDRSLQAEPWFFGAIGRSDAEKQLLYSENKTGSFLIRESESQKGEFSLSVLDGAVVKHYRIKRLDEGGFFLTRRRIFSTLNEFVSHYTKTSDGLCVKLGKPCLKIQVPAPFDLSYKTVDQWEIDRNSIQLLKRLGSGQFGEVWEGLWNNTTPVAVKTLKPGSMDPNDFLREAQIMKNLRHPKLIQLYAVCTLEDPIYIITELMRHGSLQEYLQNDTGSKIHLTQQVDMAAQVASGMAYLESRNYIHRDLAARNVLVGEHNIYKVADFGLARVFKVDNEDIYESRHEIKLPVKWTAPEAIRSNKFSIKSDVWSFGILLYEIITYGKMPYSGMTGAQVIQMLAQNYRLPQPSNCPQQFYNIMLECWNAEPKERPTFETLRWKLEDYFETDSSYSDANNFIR
T6 sequence (P0C1S8 whole entry): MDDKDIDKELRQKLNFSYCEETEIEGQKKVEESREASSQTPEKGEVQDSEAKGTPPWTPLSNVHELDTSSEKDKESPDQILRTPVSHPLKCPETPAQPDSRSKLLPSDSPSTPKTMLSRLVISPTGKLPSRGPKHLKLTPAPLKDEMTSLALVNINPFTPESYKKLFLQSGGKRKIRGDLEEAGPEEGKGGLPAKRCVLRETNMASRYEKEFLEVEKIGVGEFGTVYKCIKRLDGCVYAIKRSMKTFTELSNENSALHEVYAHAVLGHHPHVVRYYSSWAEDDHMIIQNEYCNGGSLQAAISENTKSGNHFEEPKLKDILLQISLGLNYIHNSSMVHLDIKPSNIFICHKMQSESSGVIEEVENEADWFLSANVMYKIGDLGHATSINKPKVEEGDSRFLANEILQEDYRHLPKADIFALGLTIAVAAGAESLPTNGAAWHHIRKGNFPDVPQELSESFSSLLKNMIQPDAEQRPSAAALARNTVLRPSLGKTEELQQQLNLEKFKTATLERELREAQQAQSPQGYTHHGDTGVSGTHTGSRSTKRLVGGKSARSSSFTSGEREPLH
T10 sequence (P00533 25-1210 T790M): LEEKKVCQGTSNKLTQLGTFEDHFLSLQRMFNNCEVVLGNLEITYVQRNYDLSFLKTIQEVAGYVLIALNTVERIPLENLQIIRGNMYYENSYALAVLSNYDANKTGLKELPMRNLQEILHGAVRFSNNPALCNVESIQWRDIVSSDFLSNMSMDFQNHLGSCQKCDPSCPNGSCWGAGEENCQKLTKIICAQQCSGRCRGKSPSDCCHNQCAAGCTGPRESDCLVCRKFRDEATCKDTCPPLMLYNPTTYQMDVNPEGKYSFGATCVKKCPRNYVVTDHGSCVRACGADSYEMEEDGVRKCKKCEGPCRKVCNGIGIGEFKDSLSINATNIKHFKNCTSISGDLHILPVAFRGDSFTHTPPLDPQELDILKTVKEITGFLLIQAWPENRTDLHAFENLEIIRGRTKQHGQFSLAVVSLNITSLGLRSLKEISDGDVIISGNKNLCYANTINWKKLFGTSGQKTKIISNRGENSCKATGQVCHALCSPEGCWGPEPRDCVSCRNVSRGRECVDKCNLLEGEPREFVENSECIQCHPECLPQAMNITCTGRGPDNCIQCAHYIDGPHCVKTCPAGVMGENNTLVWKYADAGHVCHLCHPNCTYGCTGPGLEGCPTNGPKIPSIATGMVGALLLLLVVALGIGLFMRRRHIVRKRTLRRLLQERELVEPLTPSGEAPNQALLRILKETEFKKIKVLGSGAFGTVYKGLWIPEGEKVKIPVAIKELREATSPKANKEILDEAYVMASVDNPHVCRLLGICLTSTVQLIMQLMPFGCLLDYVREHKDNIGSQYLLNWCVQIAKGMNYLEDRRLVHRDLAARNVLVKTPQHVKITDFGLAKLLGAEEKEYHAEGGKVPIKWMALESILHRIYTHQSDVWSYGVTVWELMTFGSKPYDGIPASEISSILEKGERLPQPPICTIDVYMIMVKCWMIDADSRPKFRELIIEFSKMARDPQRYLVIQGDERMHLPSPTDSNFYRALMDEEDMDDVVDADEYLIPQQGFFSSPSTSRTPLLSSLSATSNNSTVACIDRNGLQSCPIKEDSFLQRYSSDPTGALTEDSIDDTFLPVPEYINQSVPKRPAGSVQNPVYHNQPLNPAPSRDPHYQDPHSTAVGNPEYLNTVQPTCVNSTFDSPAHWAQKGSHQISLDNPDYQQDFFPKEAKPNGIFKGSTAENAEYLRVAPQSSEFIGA
T8 sequence (Q13555 whole entry): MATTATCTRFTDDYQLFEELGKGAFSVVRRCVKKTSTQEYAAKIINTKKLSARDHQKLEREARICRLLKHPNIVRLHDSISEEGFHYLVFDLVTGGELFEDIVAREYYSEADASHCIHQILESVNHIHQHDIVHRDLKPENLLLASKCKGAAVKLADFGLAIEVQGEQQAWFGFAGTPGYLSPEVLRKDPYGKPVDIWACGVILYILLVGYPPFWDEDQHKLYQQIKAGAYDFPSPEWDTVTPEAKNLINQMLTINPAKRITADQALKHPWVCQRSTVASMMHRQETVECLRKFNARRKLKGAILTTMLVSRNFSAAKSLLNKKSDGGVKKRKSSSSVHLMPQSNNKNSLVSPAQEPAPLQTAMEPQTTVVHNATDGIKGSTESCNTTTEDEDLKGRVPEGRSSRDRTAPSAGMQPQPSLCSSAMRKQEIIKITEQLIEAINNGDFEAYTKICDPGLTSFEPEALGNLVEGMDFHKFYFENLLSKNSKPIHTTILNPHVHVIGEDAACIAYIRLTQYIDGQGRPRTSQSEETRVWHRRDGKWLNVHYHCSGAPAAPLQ

Structure (SMILES)	remaining activity at 1 µM (panel of 442 kinases [1])	remaining activity at 1 µM (panel of 442 kinases [2])	remaining activity at 1 µM (panel of 442 kinases [3])	remaining activity at 1 µM (panel of 442 kinases [4])	remaining activity at 1 µM (panel of 442 kinases [5])	remaining activity at 1 µM (panel of 442 kinases [6])	remaining activity at 1 µM (panel of 442 kinases [7])	remaining activity at 1 µM (panel of 442 kinases [8])	remaining activity at 1 µM (panel of 442 kinases [9])	remaining activity at 1 µM (panel of 442 kinases [10])	remaining activity at 1 µM (panel of 442 kinases [11])	further results
Nc1cc(C(F)(F)F)c(-c2cc(N3CCOCC3)nc(N3CCOCC3)n2)cn1 [Buparlisib]	93%	100%	92%	93%	90%	100%	90%	100%	86%	73%	100%	remaining activity at 10 µM (panel of 442 kinases [1]; [12]): 100%; remaining activity at 10 µM (panel of 442 kinases [2]; [12]): 100%; remaining activity at 10 µM (panel of 442 kinases [3]; [12]): 100%; remaining activity at 10 µM (panel of 442 kinases [4]; [12]): 100%; remaining activity at 10 µM (panel of 442 kinases [5]; [12]): 91%; remaining activity at 10 µM (panel of 442 kinases [6]; 10 µM, read-out: WEE2 (% of control at 10 µM)): 100%; remaining activity at 10 µM (panel of 442 kinases [7]; [12]): 80%; remaining activity at 10 µM (panel of 442 kinases [8]; [12]): 100%; remaining activity at 10 µM (panel of 442 kinases [9]; [12]): 100%; remaining activity at 10 µM (panel of 442 kinases [10]; [12]): 69%; remaining activity at 10 µM (panel of 442 kinases [11]; [12]): 100%
Cn1c(=O)n(-c2ccc(C(C)(C)C#N)cc2)c2c3cc(-c4cnc5ccccc5c4)ccc3ncc21 [Dactolisib, 2-methyl-2-[4-(3-methyl-2-oxo-8-quinolin-3-yl-2,3-dihydroimidazo[4,5-c]quinolin-1-yl)-phenyl] propionitrile]	94%	–	97%	–	45%	100%	100%	88%	100%	100%	85%	–
COc1ncc(-c2ccc3nccc(-c4ccnnc4)c3c2)cc1NS(=O)(=O)c1ccc(F)cc1F [Omipalisib]	100%	96%	100%	100%	100%	84%	98%	100%	84%	100%	98%	–
FC(F)c1nc2ccccc2n1-c1nc(N2CCOCC2)nc(N2CCOCC2)n1 [ZSTK474, 2-(difluoromethyl)-1-[4,6-di(4-morpholinyl)-1,3,5-triazin-2-yl]-1H-benzimidazole]	88%	99%	100%	100%	100%	96%	100%	100%	100%	100%	83%	–

— article PMC5564600 (Oncotarget, 2017)
